Assay [1] has as its target T1, AT1 receptor of angiotensin II (Rattus norvegicus, UniProt P25095).
T1 construct: A fresh membrane preparation obtained from rat's liver is used; from tissue; host or cells: rat liver membranes
T1 sequence (P25095 1-359): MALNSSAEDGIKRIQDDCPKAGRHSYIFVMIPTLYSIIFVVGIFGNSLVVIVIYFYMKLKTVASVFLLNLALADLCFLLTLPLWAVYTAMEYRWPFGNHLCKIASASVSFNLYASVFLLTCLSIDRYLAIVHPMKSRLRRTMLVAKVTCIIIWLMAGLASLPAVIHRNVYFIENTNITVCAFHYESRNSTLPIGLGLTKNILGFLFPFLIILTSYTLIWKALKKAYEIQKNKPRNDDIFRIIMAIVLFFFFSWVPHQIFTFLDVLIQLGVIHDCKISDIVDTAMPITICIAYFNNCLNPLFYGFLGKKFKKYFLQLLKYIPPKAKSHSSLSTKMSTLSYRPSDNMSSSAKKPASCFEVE
The assay can be described thus: Test on the AT1 receptor of angiotensin II (displacement of 125I angiotensin II, rat liver membranes). Particulars: 25° C., 150 minutes, pH 7.4. The assay is classed as binding. The procedure:
1--Test on the AT1 receptor of angiotensin II
A fresh membrane preparation obtained from rat's liver is used. The tissue is ground up in a polytron in a 50 mM Tris buffer pH 7.4, the grinding is followed by 3 centrifugations at 30,000 g for 15 minutes with intermediate take up of the pellets in the Tris buffer pH 7.4.
The last pellets are suspended in an incubation buffer (20 mM Tris, 135 mM NaCl, 10 mM KCl, 5 mM glucose, 135 mM MgCl2, 0.3 mM PMSF, 0.1 mM bacitracin, 0.1% lysozyme).
1 ml aliquoted fractions are distributed in glass tubes and ^125 I angiotensin II (25,000 DPM/tube) and the product to be studied are added. (The product is first tested at 3×10^-5 M three times). When the tested product displaces more than 50% of the radioactivity specifically bound to the receptor, it is tested again according to a range of 7 concentrations in order to determine the concentration which inhibits by 50% the radioactivity specifically bound to the receptor. In this way the 50% inhibitory concentration is determined).
The non-specific bond is determined by the addition of the product of Example 94 of the European Patent 0,253,310, at 10^-5 M (three times). After incubation at 25° C. for 150 minutes, placing in a water bath at 0° C. for 5 minutes, filteration under vacuum and rinsing with Tris buffer pH 7.4, the radioactivity is counted in the presence of a scintillating solid.
(§1) The result is expressed directly as the 50% inhibitory concentration (IC50), that is to say as the concentration of product studied, expressed in nM, necessary to displace 50% of the specific radioactivity fixed to the receptor studied.

The target of assay [2] is T2, AT2 receptor of angiotensin II (Oryctolagus cuniculus, UniProt G1T351).
T2 construct: A fresh membrane preparation obtained from rabbit's uterus is used; from tissue; host or cells: rabbit uterus membranes (estradiol-pretreated, homogenate preincubated with 10 mM dithiothreitol)
T2 sequence (G1T351 1-363): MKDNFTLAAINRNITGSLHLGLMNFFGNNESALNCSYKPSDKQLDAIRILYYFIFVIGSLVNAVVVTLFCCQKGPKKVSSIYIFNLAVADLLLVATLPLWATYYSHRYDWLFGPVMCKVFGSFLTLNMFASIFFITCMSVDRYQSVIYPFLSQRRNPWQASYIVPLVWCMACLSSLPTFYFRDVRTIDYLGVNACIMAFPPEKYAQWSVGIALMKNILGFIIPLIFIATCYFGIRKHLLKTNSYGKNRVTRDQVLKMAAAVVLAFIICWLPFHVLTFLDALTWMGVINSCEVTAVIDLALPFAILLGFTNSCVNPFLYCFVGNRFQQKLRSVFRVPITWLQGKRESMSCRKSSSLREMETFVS
The assay can be described thus: Test on the AT2 receptor of angiotensin II (displacement of 125I angiotensin II, rabbit uterus membranes). The assay is classed as binding. The conditions noted are these: rabbit uterus membranes (estradiol pre-treated), 10 mM dithiothreitol preincubation, 25° C., 150 minutes, pH 7.4. Here is the method: 2) Test on the AT2 receptor of angiotensin II
A fresh membrane preparation obtained from rabbit's uterus is used, pre-treated 4 days beforehand with 50 ug of estradiol administered by percutaneous route. The tissue is ground up in a polytron in a 50 mM Tris buffer pH 7.4 and the grinding is followed by 3 centrifugations at 30,000 g for 15 minutes with intermediate take up of the pellets in the Tris buffer pH 7.4.
The last pellets are suspended in an incubation buffer (20 mM Tris, 135 mM NaCl, 10 mM KCl, 5 mM glucose, 10 mM MgCl2 6H2 O), 0.3 mM PMSF, 0.1 mM bacitracin, 0.1 o/oo lysozyme, pH 7.4).
The homogenate obtained is preincubated for 20 minutes at 25° C. in the presence of 10 mM dithiothreitol, then brought back to 0°-4° C.
1 ml aliquoted fractions are distributed in glass tubes and ^125 I angiotensin II (25,000 DPM/tube) and the product to be studied are added. The product is first tested at 3×10^-5 M three times. When the tested product displaces more than 50% of the radioactivity specifically bound to the receptor, it is tested again according to a range of 7 concentrations in order to determine the concentration which inhibits by 50% the radioactivity specifically bound to the receptor. In this way the 50% inhibitory concentration is determined.
The […] is determined by the addition of EXP 655 (=PD 123-177 from Warner-Lambert) at 10^-5 M (in triplicate). After incubation at 25° C. for 150 minutes, placing in a water bath at 0° C. for 5 minutes, filteration under vacuum and rinsing with Tris buffer pH 7.4, the radioactivity is counted in the presence of a scintillating solid.
as §1
In general terms: In a radioligand displacement assay an active substance lowers the binding of a labelled ligand.

The subject of assay [3] is angiotensin II. The assay can be described thus: Test for antagonistic activity of angiotensin II in the demedullated rat. The assay is classed as in vivo, rat (male Sprague Dawley). The conditions noted are these: angiotensin II 0.75 micrograms/kg, read-out: ID50 (50% inhibitory dose of the pressure effect of angiotensin II).
The mark [4] stands for this setting: IV, injected 5 minutes before angiotensin II.

pIC50: −log10 of the molar value. Read-outs that look alike come from different tables or passages of the source.

As to `CCCCc1nc(SC)c(C(=O)C(=O)O)n1Cc1ccc(-c2ccccc2S(=O)(=O)NC(=O)NCC2CCCCC2)cc1` [Example 7, 2-butyl 1-((2'-(((((cyclohexylmethyl)amino)carbonyl)amino)sulphonyl) (1,1'-biphenyl) 4-yl)methyl) 4-methylthio alpha oxo-1H-imidazole 5-acetic acid], the pIC50 in assay [1] is 9.15; in assay [2], 8.17.

As to `CCCCc1nc(SC)c(C(=O)C[S+](C)[O-])n1Cc1ccc(-c2ccccc2S(=O)(=O)NC(=O)NCc2ccccc2)cc1` (stereo not drawn) [Example 9, 4'-((2-butyl 5-(2-(methylsulphinyl)acetyl) 4-(methylthio) 1H-imidazol 1-yl)methyl) N-(((phenylmethyl)amino)carbonyl) (1,1'-biphenyl) 2-sulphonamide], the negative logarithm of the IC50 (pIC50) in assay [1] is 9.52; in assay [2], 7.82. The ED50 in assay [3] (setting [4]) was 0.06 mg/kg; in assay [3] (PO) it was 0.7 mg/kg.

For the molecule `CCCCc1nc(SC)c(C(=O)CC(=O)OCC)n1Cc1ccc(-c2ccccc2S(=O)(=O)NC(=O)NCCC)cc1` [Example 12], the pIC50 was 9.70 in assay [1] and 7.08 in assay [2].

For the molecule `CCCCc1nc(SC)c(C(=O)C(=O)NCc2ccccc2)n1Cc1ccc(-c2ccccc2S(=O)(=O)NC(=O)NCc2ccccc2)cc1` [Example 11, 2-butyl 4-(methylthio) alpha oxo N-(phenylmethyl) 1-((2'-(((((phenylmethyl)amino)carbonyl)amino)sulphonyl) (1,1'-biphenyl) 4-yl)methyl) 1-H-imidazole 5-acetamide], the pIC50 in assay [1] was 9.22; in assay [2], 7.28.

Turning to `CCCc1nc(SC)c(C(=O)C[S+]([O-])c2ccccc2)n1Cc1ccc(-c2ccccc2S(=O)(=O)NC(=O)NCC2CCCC2)cc1` (racemic) [Example 46, (±) N-(((cyclopentylmethyl)amino)carbonyl) 4'-((4-(methylthio) 5-((phenylsulphinyl)acetyl) 2-propyl 1H-imidazol 1-yl)methyl) (1,1'-biphenyl) 2-sulphonamide], the figures for the pIC50 in assay [1] and in assay [2] were 9.40 and 8.60, respectively.

With `CCCc1nc(SC)c(C(=O)Nc2nn[nH]n2)n1Cc1ccc(-c2ccccc2S(=O)(=O)NC(=O)NCc2ccccc2)cc1` [Example 15, 4-(methylthio) 1-((2'-(((((phenylmethyl)amino)carbonyl)amino)sulphonyl) (1,1'-biphenyl) 4-yl)methyl) 2-propyl N-(2H-tetrazol 5-yl) 1H-imidazole 5-carboxamide], the pIC50 in assay [1] was 9.70; in assay [2], 8.70.

`CCCCc1nc(SC)c(C(=O)Nc2nnn[nH]2)n1Cc1ccc(-c2ccccc2S(=O)(=O)NC(=O)NCCC)cc1` [Example 13]: the pIC50 in assay [1] was 9.62; in assay [2] it was 7.62. Also, the ED50 in assay [3] (setting [4]) was found to be 0.12 mg/kg.

Take `CCCCc1nc(SC)c(C(=O)C(=O)O)n1Cc1ccc(-c2ccccc2S(=O)(=O)NC(=O)NCc2ccccc2)cc1` [Example 10, 2-butyl 4-(methylthio) alpha oxo 1-((2'-(((((phenylmethyl)amino)carbonyl)amino)sulphonyl) (1,1'-biphenyl) 4-yl)methyl) 1-H-imidazole 5-acetic acid]: the pIC50 in assay [1] was 9.74; in assay [2], 7.42.

Regarding `CCCc1nc(SC)c(C(=O)C[S+]([O-])c2ccccc2)n1Cc1ccc(-c2ccccc2S(=O)(=O)NC(=O)CCC2CCCC2)cc1` (racemic) [Example 47, (±) N-(4'-((4-(methylthio) 5-((phenylsulphinyl)acetyl) 2-propyl 1H-imidazol 1-yl)methyl) (1,1'-biphenyl-2yl)sulphonyl) cyclopentanepropanamide], the pIC50 was 10.05 in assay [1] and 8.68 in assay [2].

In the case of `CCCc1nc(SC)c(C(=O)C[S+]([O-])c2ccccc2)n1Cc1ccc(-c2ccccc2S(=O)(=O)NC(=O)NCc2ccccc2)cc1` (stereo not drawn) [Example 20, 4'-((4-(methylthio) 5-(2-(phenylsulphinyl)acetyl) 2-propyl 1H-imidazol-1-yl)methyl) N-(((phenylmethyl)amino)carbonyl) (1,1'-biphenyl) 2-sulphonamide], the results for the pIC50 in assay [1] and in assay [2] were 10.10 and 9.10, respectively. Also, the ED50 was 0.04 mg/kg in assay [3] (setting [4]) and 0.8 mg/kg in assay [3] (PO).

In the case of `CCCCc1nc(SC)c(C(=O)CC(=O)OCC)n1Cc1ccc(-c2ccccc2S(=O)(=O)NC(=O)NCc2ccccc2)cc1` [Example 21, ethyl 2-butyl 4-(methylthio) beta-oxo-1-((2'-(((((phenylmethyl)amino)carbonyl)amino)sulphonyl) (1,1'-biphenyl) 4-yl)methyl) 1H-imidazole 5-propanoate], the figures for the pIC50 in assay [1] and in assay [2] were 10.10 and 9.00, respectively. For the same molecule, in assay [3] (setting [4]), the ED50 came to 0.08 mg/kg.

Consider `CCCc1nc(SC)c(C(=O)C[S+]([O-])c2ccccc2)n1Cc1ccc(-c2ccccc2S(=O)(=O)NC(=O)NCc2cccs2)cc1` (stereo not drawn) [Example 34, 4'-((4-(methylthio) 5-((phenylsulphinyl)acetyl) 2-propyl 1H-imidazol-1-yl)methyl) N-(((2-thienylmethyl)amino)carbonyl) (1,1'-biphenyl) 2-sulphonamide], for which the pIC50 in assay [1] was 10.30; in assay [2], 8.66.

Broadly, the pIC50 is the IC50 on a negative log10 scale, so that one unit is a factor of ten.

These data come from patent publication US5807878A, “Tetrasubstituted imidazoles” (Uclaf; Roussel, priority 1994, dated 1998).
